After the bases stand the sugars from the 5' end (letter, count) and the backbone: PS all phosphorothioate, else s phosphorothioate and o phosphodiester by linkage. Methylation of C is not given here. e = 2'-O-(2-methoxyethyl) (MOE); k = constrained ethyl (cEt); d = 2'-deoxy (DNA)
Target: IRF4
Settings: ASO

Row | Sequence | target mRNA inhibition (SK-MEL-28, 4 µM) [%] | target mRNA inhibition (MM.1R, 1 µM) [%]
1 | CCAGGTTAAACAGGAA (sugars k3 d10 k3, PS) | 6 | –
2 | CCATAGAGCCAGAGCA (sugars k3 d10 k3, PS) | 64 | –
3 | CCATGGGAGATCCGGC (sugars k3 d10 k3, PS) | 54 | –
4 | CCATTTAATCTGTCTA (sugars k3 d10 k3, PS) | 28 | –
5 | CCCAAAATACTTTGCA (sugars k3 d10 k3, PS) | 64 | –
6 | CCCAAAGGGCATCCTC (sugars k3 d10 k3, PS) | 41 | –
7 | CCCAAGATCGAGCGGT (sugars k3 d10 k3, PS) | 28 | –
8 | CCCAAGCCTTGAAGAG (sugars k4 d8 k4, PS) | 22 | –
9 | CCCATCGAATCTGCCC (sugars k3 d10 k3, PS) | – | -24
10 | CCCCAGGGCCCTCGGT (sugars k3 d10 k3, PS) | 18 | –
11 | CCCCGTATCCCCGTAT (sugars k3 d10 k3, PS) | 45 | –
12 | CCCGACACGCGCCGCT (sugars k3 d10 k3, PS) | 12 | –
13 | CCCTAAGTTTAATTTA (sugars k3 d10 k3, PS) | -3 | –
14 | CCCTAGGTCATACCCT (sugars k3 d10 k3, PS) | 57 | –
15 | CCCTCATCACCGAACA (sugars k3 d10 k3, PS) | – | -25
16 | CCCTTATTAGACTGAC (sugars k3 d10 k3, PS) | 67 | –
17 | CCCTTGCTGCAAATCC (sugars k3 d10 k3, PS) | – | -4
18 | CCGCACTCACTCGCAG (sugars k3 d10 k3, PS) | 8 | –
19 | CCGCAGAGAGCTAGCA (sugars k3 d10 k3, PS) | -6 | –
20 | CCGCAGCCCAAAGGCT (sugars k3 d10 k3, PS) | – | 4
21 | CCGCGCTCATGCCGAA (sugars k3 d10 k3, PS) | 45 | –
22 | CCGCTGAGAGCCGAGG (sugars k3 d10 k3, PS) | -4 | –
23 | CCGGACCCCGGAGCAG (sugars k3 d10 k3, PS) | -24 | –

Row | Sequence | target mRNA inhibition (SK-MEL-28, 4 µM) [%] | target mRNA inhibition (MM.1R, 1 µM) [%]
24 | CCGTCCGCGCCCGCGC (sugars k3 d10 k3, PS) | 61 | –
25 | CCGTGGTGAGCAAACG (sugars k3 d10 k3, PS) | 32 | –
26 | CCTAAGTACCTGAAAT (sugars k3 d10 k3, PS) | 11 | –
27 | CCTAATCTACAACAAA (sugars k3 d10 k3, PS) | 15 | –
28 | CCTATCACTGCCAAGT (sugars k3 d10 k3, PS) | – | -3
29 | CCTATGCTGAACCCCA (sugars k3 d10 k3, PS) | – | -12
30 | CCTCAAAGTCATTGCT (sugars k3 d10 k3, PS) | 21 | –
31 | CCTCACTACAGAGCCC (sugars k3 d10 k3, PS) | 24 | –
32 | CCTCAGTTTGTGAAGC (sugars e1 k2 d9 k2 e2, PS) | – | 11
33 | CCTCAGTTTGTGAAGC (sugars k3 d9 k3 e1, PS) | – | 2
34 | CCTCAGTTTGTGAAGC (sugars k3 d10 k3, PS) | 69 | –
35 | CCTCATTCACAACTAG (sugars k3 d10 k3, PS) | – | 5
36 | CCTCCATTCTAACAGA (sugars k3 d10 k3, PS) | -18 | –
37 | CCTCTGAGCAGAACGA (sugars k3 d10 k3, PS) | 76 | –
38 | CCTGAGACAGACTTCC (sugars k3 d10 k3, PS) | 55 | –
39 | CCTGATGCCTCCGCCG (sugars k3 d10 k3, PS) | – | 6
40 | CCTGTAGTATGAGAAA (sugars k3 d10 k3, PS) | 57 | –
41 | CCTGTGGTGGAACTCT (sugars k3 d10 k3, PS) | 27 | –
42 | CCTTAACCAATCCCAA (sugars k3 d10 k3, PS) | 43 | –
43 | CCTTAAGCTATTTGGT (sugars k3 d10 k3, PS) | – | -786
44 | CCTTCAGATTTACACC (sugars k3 d10 k3, PS) | – | -9
45 | CGAAAAGACTGGAGTG (sugars k3 d10 k3, PS) | – | 26

— the OligoGym collection
